According to the NIST ThermoML archive (doi:10.1021/je800636k):

Key:
[1] = 101 kPa, Liquid; for electrical conductivity: Qcond 2400 VWR international / cell constant, 1.05; for viscosity: Concentric cylinders viscometry; for mass density: Vibrating tube method
[2] = xn = mol fraction of the nth substance listed; conditions: 101 kPa, Liquid, x2 = 0; for electrical conductivity: Qcond 2400 VWR international / cell constant, 1.05; for viscosity: Concentric cylinders viscometry; for mass density: Vibrating tube method

CCCCn1cc[n+](C)c1C.[N-]=[N+]=[N-] [1-butyl-2,3-dimethylimidazolium azide]
[1]
Conditions	electrical conductivity [S/m]	mass density [kg/m3]	viscosity [mPa·s]
303.15 K	0.0488	–	–
308.15 K	0.0756	–	–
313.15 K	0.112	1070.46	338.19
318.15 K	0.159	–	–
323.15 K	0.219	1065.14	176.04
328.15 K	0.294	–	–
333.15 K	0.383	1059.83	101.63
338.15 K	0.49	–	–
343.15 K	0.614	1054.52	63.6
348.15 K	0.756	–	–
353.15 K	0.918	1049.21	42.44
358.15 K	1.1	–	–
363.15 K	1.3	1043.9	29.82
368.15 K	1.52	–	–
373.15 K	–	1038.59	21.87

CCCCn1cc[n+](C)c1C.F[B-](F)(F)F [1-butyl-2,3-dimethylimidazolium tetrafluoroborate]
[1]
Conditions	electrical conductivity [S/m]	mass density [kg/m3]	viscosity [mPa·s]
303.15 K	0.0758	–	–
308.15 K	0.106	–	–
313.15 K	0.145	1182.05	364.17
318.15 K	0.194	–	–
323.15 K	0.254	1175.57	204.79
328.15 K	0.327	–	–
333.15 K	0.415	1169.08	124.34
338.15 K	0.518	–	–
343.15 K	0.639	1162.6	80.35
348.15 K	0.779	–	–
353.15 K	0.939	1156.12	54.65
358.15 K	1.12	–	–
363.15 K	1.32	1149.64	38.8
368.15 K	1.55	–	–
373.15 K	–	1143.15	28.56

CCCCn1cc[n+](C)c1C.F[B-](F)(F)F [1-butyl-2,3-dimethylimidazolium tetrafluoroborate] + CCCCn1cc[n+](C)c1C.[N-]=[N+]=[N-]
[2]
Conditions	electrical conductivity [S/m]	mass density [kg/m3]	viscosity [mPa·s]
303.15 K	0.0758	–	–
308.15 K	0.106	–	–
313.15 K	0.145	1182.05	364.17
318.15 K	0.194	–	–
323.15 K	0.254	1175.57	204.79
328.15 K	0.327	–	–
333.15 K	0.415	1169.08	124.34
338.15 K	0.518	–	–
343.15 K	0.639	1162.6	80.35
348.15 K	0.779	–	–
353.15 K	0.939	1156.12	54.65
358.15 K	1.12	–	–
363.15 K	1.32	1149.64	38.8
368.15 K	1.55	–	–
373.15 K	–	1143.15	28.56
